Test results from US6495591B1, “Fungal efflux pump inhibitors” (Essential Therapeutics, Inc., priority 1997, dated 2002).
Values after ≈ are worked out from the molar mass of the structure shown. Like-named read-outs stand apart in the source and are kept apart here.

Key:
[1] = tested on: C. glabrata YEM-16 (low level CgBEN and CgCDR expression); test: microbe, parasite or virus in culture; type: cell-based
[2] = tested on: C. albicans YEM-15 (CDR1 & CDR2 overexpressor); type: cell-based
[3] = tested on: S. cerevisiae YEM-38 (FLU1 introduced); test: microbe, parasite or virus in culture; type: cell-based; settings: Saccharomyces cerevisiae, read-out: MIC Mb alone
[4] = Cytotoxicity TC50 in K-562; type: cell-based; settings: human, k-562 cells; compound alone
[5] = tested on: C. albicans YEM-24 (CDR1, CDR2 deleted); test: microbe, parasite or virus in culture; type: cell-based
[6] = tested on: C. krusei YEM-52 (ATCC 90878), wild type; test: Minimal concentration to reduce fluconazole MIC sixteen-fold (Table 7); type: cell-based; settings: YEM-52, wild type
[7] = tested on: C. albicans YEM-29 (BEN, FLU1 deleted); test: microbe, parasite or virus in culture; type: cell-based
[8] = tested on: C. albicans YEM-11 (BEN overexpressor); test: microbe, parasite or virus in culture; type: cell-based; settings: Candida albicans, read-out: MIC Mb alone
[9] = target: BenR pump (Candida albicans, UniProt P28873); test: Follow-up evaluation of screening hit, efflux pump inhibition; settings: follow-up evaluation of screen hit
BenR pump, sequence (P28873 whole entry): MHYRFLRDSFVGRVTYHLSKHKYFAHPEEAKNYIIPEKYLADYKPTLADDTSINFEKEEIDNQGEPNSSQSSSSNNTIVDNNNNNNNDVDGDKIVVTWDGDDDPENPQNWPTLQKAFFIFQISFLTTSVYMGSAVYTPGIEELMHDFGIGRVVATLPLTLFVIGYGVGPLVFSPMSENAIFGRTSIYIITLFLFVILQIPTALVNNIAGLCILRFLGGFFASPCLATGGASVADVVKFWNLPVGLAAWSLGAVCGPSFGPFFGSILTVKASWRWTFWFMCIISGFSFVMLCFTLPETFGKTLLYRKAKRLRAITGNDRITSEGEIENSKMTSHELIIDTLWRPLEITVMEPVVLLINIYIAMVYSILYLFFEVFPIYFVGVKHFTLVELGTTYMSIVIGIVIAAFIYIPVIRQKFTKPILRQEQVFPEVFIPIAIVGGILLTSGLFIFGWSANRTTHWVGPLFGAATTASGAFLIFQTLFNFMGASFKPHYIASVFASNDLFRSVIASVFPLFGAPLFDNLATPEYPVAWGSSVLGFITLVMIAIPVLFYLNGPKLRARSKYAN
Experimental: An exemplary screen uses C. albicans (e.g., ATCC10231) grown in YPD medium (medium described in “Guide to Yeast Genetics and Molecular Biology”, in Methods in Enzymolopy, vol. 194, pp.13, 1991,; Academic Press; Ed. C. Guthrie and G. Fink) at 30° C. […] Test and control cultures are inoculated with log-phase cells to provide approximately 10^3 CFU/ml. Cultures are incubated at 30° C. for 20-22 hrs. Cell concentration is determined by taking the OD600.

[10] = tested on: C. glabrata YEM-18 (low level CgBEN and CgCDR expression); test: microbe, parasite or virus in culture; type: cell-based
[11] = tested on: C. albicans YEM-15 (CDR1 and CDR2 overexpressor); test: microbe, parasite or virus in culture; type: cell-based; settings: Candida albicans, read-out: MIC Mb alone
[12] = tested on: S. cerevisiae YEM-2 (BEN introduced); test: microbe, parasite or virus in culture; type: cell-based; settings: Saccharomyces cerevisiae, read-out: MIC Mb alone
[13] = tested on: P388/ADM, adriamycin resistant subline; test: Adriamycin cytotoxicity (MTT), P-glycoprotein assay
Experimental: (§1) The inhibitory effect of milbemycin β1 against the mammalian P-glycoprotein multi-drug resistant pump was determined following the procedure described by Tsuruo et al (Cancer Res., 1981. 41:1967-1972) with slight modification. The cytotoxicity of antitumor agent, adriamycin, against adriamycin sensitive P388 cell line (mouse leukemia) and its adriamycin resistant subline line (P388/ADM) was measured in the presence of various concentrations of milbemycin β1. […] The assay is performed in serum-free media containing 20 μM of 2-mercaptoethanol. Chemosensitivity to adriamycin was determined […] based on the reduction of MTT (3-[4,5-dimethylthiazol-2-yl]-2,5-diphenyltetrazolium bromide) into blue formazan.

[14] = tested on: P388 cell line (mouse leukemia), adriamycin sensitive; test: as above
Experimental: as §1

[15] = tested on: mammalian P-glycoprotein multi-drug resistant pump; type: cell-based, mouse
Experimental: as §1

[16] = tested on: C. albicans YEM-13 (BEN); type: cell-based
[17] = tested on: C. albicans YEM-20 (CDR1 deleted); test: microbe, parasite or virus in culture; type: cell-based
[18] = tested on: C. albicans clinical isolates (n = 33); test: microbe, parasite or virus in culture; type: cell-based
[19] = tested on: C. albicans YEM-15 (CDR1 & CDR2 overexpressor); test: microbe, parasite or virus in culture; type: cell-based; parameters: MIC Reduction Factor, fluconazole / MIC Reduction Factor, itraconazole / MIC Reduction Factor, ketoconazole / MIC Reduction Factor, terbinafine: unit not given beside the values; settings: for MIC: Candida albicans
[20] = tested on: C. neoformans; test: microbe, parasite or virus in culture; type: cell-based, Cryptococcus neoformans
[21] = target: pFLU (MF) efflux pump in S. cerevisiae YEM-38 (Candida albicans, UniProt G1UB37); test: cell-based; type: cell-based, C. albicans
pFLU (MF) efflux pump in S. cerevisiae YEM-38, sequence (G1UB37 whole entry): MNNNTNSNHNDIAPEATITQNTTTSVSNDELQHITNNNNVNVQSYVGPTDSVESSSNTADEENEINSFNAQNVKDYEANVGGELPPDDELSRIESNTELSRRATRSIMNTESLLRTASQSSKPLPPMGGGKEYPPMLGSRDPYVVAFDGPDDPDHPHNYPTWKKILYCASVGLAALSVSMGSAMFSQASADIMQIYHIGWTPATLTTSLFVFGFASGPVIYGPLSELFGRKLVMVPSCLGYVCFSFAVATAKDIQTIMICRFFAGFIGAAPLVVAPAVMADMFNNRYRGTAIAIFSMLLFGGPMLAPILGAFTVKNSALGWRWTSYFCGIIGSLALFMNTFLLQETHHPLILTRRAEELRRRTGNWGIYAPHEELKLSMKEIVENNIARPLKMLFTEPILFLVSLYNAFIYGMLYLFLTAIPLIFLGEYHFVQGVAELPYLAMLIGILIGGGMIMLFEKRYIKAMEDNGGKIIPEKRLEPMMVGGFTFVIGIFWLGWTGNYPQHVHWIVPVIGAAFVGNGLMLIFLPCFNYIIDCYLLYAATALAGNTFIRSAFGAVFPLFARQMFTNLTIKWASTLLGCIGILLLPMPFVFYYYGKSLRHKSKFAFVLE

[22] = tested on: C. tropicalis; test: microbe, parasite or virus in culture; type: cell-based
[23] = tested on: C. krusei; test: microbe, parasite or virus in culture; type: cell-based
[24] = tested on: S. cerevisiae YEM-37 overexpressing CDR2 (C. albicans); test: microbe, parasite or virus in culture; type: cell-based; parameters: MIC Reduction Factor, fluconazole: unit not given beside the values; settings: for MIC: Saccharomyces cerevisiae
[25] = Nakaseomyces glabratus, read-out: MIC of milbemycin β1 (MB) alone
[26] = Candida albicans, read-out: MIC Mb alone
[27] = read-out: Terbinafine MIC in the presence of FEPImax
[28] = YEM-15, milbemycin α9 at FEPImax
[29] = YEM-37 (CDR2), milbemycin α9 at FEPImax
[30] = YEM-37, milbemycin α9 at FEPImax

## CO[C@H]1C[C@@]2(O)/C(CO)=C/C=C/[C@H](C)C/C(C)=C/C[C@@H]3C[C@@H](C[C@]4(CC[C@H](C)[C@@H](C)O4)O3)OC(=O)[C@@H]2C=C1C [Compound 6, Milbemycin β1]
[1]; [25]
  MIC: > 64 µg/mL
[1]; YEM-16
  Fluconazole MIC with 2.5 μg/ml milbemycin β1: 1 µg/mL
  Fluconazole MIC with 5 μg/ml milbemycin β1: 2 µg/mL
  Fluconazole MIC with 10 μg/ml milbemycin β1: 2 µg/mL
  Fluconazole MIC with […] milbemycin β1: 2 µg/mL
[2]
  Minimal concentration required to reduce the MIC of fluconazole by sixteen-fold: <0.07 µg/mL
[3]
  MIC: 8 µg/mL (≈ 14.7 µM)
[4]
  CC50: 8 µM
[5]; [26]
  MIC: 16 µg/mL (≈ 29.4 µM)
[5]; YEM-24, CDR1, CDR2 deleted, milbemycin β1 2.5 μg/ml
  MIC of fluconazole, Flu + Mb (2.5 μg/ml): 0.125 µg/mL
[6]
  Minimal concentration required to reduce the MIC of fluconazole by sixteen-fold: 1.25 µg/mL
[7]; [26]
  MIC: 16 µg/mL (≈ 29.4 µM)
[7]; YEM-29, BEN, FLU1 deleted, milbemycin β1 2.5 μg/ml
  MIC of fluconazole, Flu + Mb (2.5 μg/ml): 0.03 µg/mL
[8]
  MIC: 16 µg/mL (≈ 29.4 µM)
[9]
  Inhibition of the BenR pump: did not appreciably inhibit the BenR pump
[10]; [25]
  MIC: > 64 µg/mL
[10]; YEM-18
  Fluconazole MIC with 2.5 μg/ml milbemycin β1: 2 µg/mL
  Fluconazole MIC with 5 μg/ml milbemycin β1: 2 µg/mL
  Fluconazole MIC with 10 μg/ml milbemycin β1: 2 µg/mL
  Fluconazole MIC with […] milbemycin β1: 2 µg/mL
[11]
  MIC: 16 µg/mL (≈ 29.4 µM)
[12]
  MIC: 8 µg/mL (≈ 14.7 µM)
[13]; inhibitor 0.06 μg/ml
  Adriamycin TC50, P388/ADM: 1.955 µg/mL
[13]; inhibitor 0.25 μg/ml
  Adriamycin TC50, P388/ADM: 0.66 µg/mL
[13]; inhibitor 0.5 μg/ml
  Adriamycin TC50, P388/ADM: 0.369 µg/mL
[13]; inhibitor 1 μg/ml
  Adriamycin TC50, P388/ADM: 0.215 µg/mL
[13]; inhibitor 2 μg/ml
  Adriamycin TC50, P388/ADM: 0.05 µg/mL
[13]; inhibitor 3.125 μg/ml
  Adriamycin TC50, P388/ADM: 0.051 µg/mL
[13]; inhibitor […]
  Adriamycin TC50, P388/ADM: 0.848 µg/mL
[14]; inhibitor 0.06 μg/ml
  Adriamycin TC50, P388: 0.009 µg/mL
[14]; inhibitor 0.25 μg/ml
  Adriamycin TC50, P388: 0.009 µg/mL
[14]; inhibitor 0.5 μg/ml
  Adriamycin TC50, P388: 0.011 µg/mL
[14]; inhibitor 1 μg/ml
  Adriamycin TC50, P388: 0.009 µg/mL
[14]; inhibitor 2 μg/ml
  Adriamycin TC50, P388: 0.012 µg/mL
[14]; inhibitor 3.125 μg/ml
  Adriamycin TC50, P388: 0.011 µg/mL
[14]; inhibitor […]
  Adriamycin TC50, P388: 0.008 µg/mL
[15]; compared with verapamil
  Potency as inhibitor of the mammalian p-glycoprotein multi-drug resistant pump: potency similar to that of verapamil
[15]; inhibitor 0.06 μg/ml
  Ratio [P388/A]/[P388]: 220
[15]; inhibitor 0.25 μg/ml
  Ratio [P388/A]/[P388]: 75
[15]; inhibitor 0.5 μg/ml
  Ratio [P388/A]/[P388]: 32
[15]; inhibitor 1 μg/ml
  Ratio [P388/A]/[P388]: 23
[15]; inhibitor 2 μg/ml
  Ratio [P388/A]/[P388]: 4
[15]; inhibitor 3.125 μg/ml
  Ratio [P388/A]/[P388]: 5
[16]
  Minimal concentration required to reduce the MIC of fluconazole by sixteen-fold: 80 µg/mL
[17]; [26]
  MIC: 16 µg/mL (≈ 29.4 µM)
[17]; YEM-20, CDR1 deleted, milbemycin β1 2.5 μg/ml
  MIC of fluconazole, Flu + Mb (2.5 μg/ml): 0.125 µg/mL

## C/C1=C\C[C@@H]2C[C@@H](C[C@]3(CC[C@H](C)[C@@H](C)O3)O2)OC(=O)[C@@H]2C=C(COC(=O)c3ccc[nH]3)[C@@H](O)[C@H]3OC/C(=C\C=C\[C@H](C)C1)[C@]32O [Compound 11, Milbemycin α9]
[18]
  Fluconazole MIC50, + milbemycin α9: <0.25 µg/mL
  Fluconazole MIC90, + milbemycin α9: <0.25 µg/mL
  Fluconazole MIC Range, + milbemycin α9: <0.25 to 1 µg/mL
[18]; C. albicans (n=33)
  Reduction of fluconazole MIC90 by milbemycin α9: > 512 fold
[19]; read-out: Milbemycin α9 MIC
  MIC: > 64 µg/mL
[19]; [27]
  MIC: 0.125 µg/mL
[19]; YEM-15
  FEPImax (minimal milbemycin α9 conc. for maximum MIC reduction), fluconazole: 16 µg/mL
  FEPImax (minimal milbemycin α9 conc. for maximum MIC reduction), itraconazole: 1 µg/mL
  FEPImax (minimal milbemycin α9 conc. for maximum MIC reduction), ketoconazole: 4 µg/mL
  FEPImax (minimal milbemycin α9 conc. for maximum MIC reduction), terbinafine: 4 µg/mL
[19]; [28]
  Fluconazole MIC in the presence of FEPImax: 2 µg/mL
  Itraconazole MIC in the presence of FEPImax: 0.06 µg/mL
  Ketoconazole MIC in the presence of FEPImax: 0.015 µg/mL
  MIC Reduction Factor, fluconazole: 64
  MIC Reduction Factor, itraconazole: 8
  MIC Reduction Factor, ketoconazole: 64
  MIC Reduction Factor, terbinafine: 1024
[20]
  Fluconazole MIC, + milbemycin α9: ≦0.25 μg/ml
[21]
  IC50: > 100 µM
[22]
  Fluconazole MIC, + milbemycin α9: ≦0.25 μg/ml
[23]
  Fluconazole MIC, + milbemycin α9: 16 µg/mL
[24]; read-out: Milbemycin α9 MIC
  MIC: > 64 µg/mL
[24]; [27]
  MIC: 0.5 µg/mL
[24]; YEM-37 (CDR2)
  FEPImax (minimal milbemycin α9 conc. for maximum MIC reduction), fluconazole: 1 µg/mL
  FEPImax (minimal milbemycin α9 conc. for maximum MIC reduction), terbinafine: 4 µg/mL
[24]; [29]
  Pump inhibition (%), fluconazole: 100%
  Pump inhibition (%), terbinafine: 100%
[24]; [30]
  Fluconazole MIC in the presence of FEPImax: 0.5 µg/mL
  MIC Reduction Factor, fluconazole: 8
